PubChem BioAssay (NCI)
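Following 48 hours of exposure in 96-well plates, responses at five concentrations were used to interpolate endpoints linearly. GI50 marks 50% less growth. At the TGI there is no net growth.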

Assays:
Test in all cases: NCI tumour cell line growth inhibition, 48 h
NCI-H226 lung = test system: NCI-H226 lung
SK-MEL-28 melanoma = test system: SK-MEL-28 melanoma
CAKI-1 renal = test system: CAKI-1 renal
PC-3 prostate = test system: PC-3 prostate
NCI-H23 lung = test system: NCI-H23 lung
NCI-H522 lung = test system: NCI-H522 lung
T-47D breast = test system: T-47D breast
HCT-15 colon = test system: HCT-15 colon
SR leukemia = test system: SR leukemia
HOP-92 NSCLC = test system: HOP-92 NSCLC
SNB-19 CNS = test system: SNB-19 CNS
KM12 colon = test system: KM12 colon
NCI/ADR-RES ovarian = test system: NCI/ADR-RES ovarian
BT-549 breast = test system: BT-549 breast
IGROV1 ovarian = test system: IGROV1 ovarian
HS 578T breast = test system: HS 578T breast
HOP-62 NSCLC = test system: HOP-62 NSCLC
EKVX NSCLC = test system: EKVX NSCLC
LOX IMVI melanoma = test system: LOX IMVI melanoma
MDA-MB-231 breast = test system: MDA-MB-231 breast
NCI-H460 lung = test system: NCI-H460 lung
OVCAR-8 ovarian = test system: OVCAR-8 ovarian
UACC-62 melanoma = test system: UACC-62 melanoma
SK-MEL-5 melanoma = test system: SK-MEL-5 melanoma
MALME-3M melanoma = test system: MALME-3M melanoma
DU-145 prostate = test system: DU-145 prostate
SK-MEL-2 melanoma = test system: SK-MEL-2 melanoma
OVCAR-4 ovarian = test system: OVCAR-4 ovarian
MCF7 breast = test system: MCF7 breast

Oc1ccc(-c2nnc(SCc3ccc(O)c4ncccc34)n2-c2ccccc2)cc1
TGI (NCI-H226 lung): > 85800 nM
GI50 (SK-MEL-28 melanoma): 621 nM
TGI (SK-MEL-28 melanoma): > 100000 nM
GI50 (CAKI-1 renal): 448 nM
TGI (CAKI-1 renal): > 100000 nM
GI50 (PC-3 prostate): 433 nM
TGI (PC-3 prostate): > 100000 nM
GI50 (NCI-H23 lung): 482 nM
TGI (NCI-H23 lung): > 100000 nM
GI50 (NCI-H522 lung): 330 nM
TGI (NCI-H522 lung): 2850 nM
GI50 (T-47D breast): 600 nM
TGI (T-47D breast): > 100000 nM
GI50 (HCT-15 colon): 164 nM
TGI (HCT-15 colon): > 100000 nM
GI50 (SR leukemia): 325 nM
TGI (SR leukemia): > 100000 nM
GI50 (HOP-92 NSCLC): 28.9 nM
TGI (HOP-92 NSCLC): 845 nM
GI50 (SNB-19 CNS): 385 nM
TGI (SNB-19 CNS): > 100000 nM
GI50 (KM12 colon): 372 nM
TGI (KM12 colon): > 100000 nM
GI50 (NCI/ADR-RES ovarian): 207 nM
GI50 (BT-549 breast): 606 nM
TGI (BT-549 breast): > 25800 nM
GI50 (IGROV1 ovarian): 471 nM
TGI (IGROV1 ovarian): > 88300 nM
GI50 (HS 578T breast): 533 nM
TGI (HS 578T breast): > 100000 nM
GI50 (HOP-62 NSCLC): 521 nM
TGI (HOP-62 NSCLC): > 100000 nM
GI50 (EKVX NSCLC): 596 nM
TGI (EKVX NSCLC): > 100000 nM
GI50 (LOX IMVI melanoma): 377 nM
TGI (LOX IMVI melanoma): 6930 nM
GI50 (MDA-MB-231 breast): 458 nM
TGI (MDA-MB-231 breast): > 100000 nM
GI50 (NCI-H460 lung): 152 nM
TGI (NCI-H460 lung): 6280 nM
GI50 (OVCAR-8 ovarian): 233 nM
TGI (OVCAR-8 ovarian): > 100000 nM
GI50 (UACC-62 melanoma): 462 nM
TGI (UACC-62 melanoma): 3980 nM
GI50 (SK-MEL-5 melanoma): 371 nM
TGI (SK-MEL-5 melanoma): 1840 nM
GI50 (MALME-3M melanoma): 902 nM
TGI (MALME-3M melanoma): > 29100 nM
GI50 (DU-145 prostate): 438 nM
TGI (DU-145 prostate): > 100000 nM
GI50 (SK-MEL-2 melanoma): 828 nM
TGI (SK-MEL-2 melanoma): > 36900 nM
GI50 (OVCAR-4 ovarian): 566 nM
TGI (OVCAR-4 ovarian): > 100000 nM
GI50 (MCF7 breast): 140 nM
TGI (MCF7 breast): > 100000 nM
